Entries after “also recorded” stand apart in the source; their conditions may differ.
Columns and labels:
THLE-5B cells [1] = test: Anchorage-independent transformation (over-agar) assay in THLE-5B cells; type: cell-based, human; settings: 10 ng/ml EGF, inhibitor 0.01 μM to 1.0 μM, colonies counted after 14 days
Procedure: Cells and Culture Conditions. The normal human liver epithelial cell line, THLE-5B, was kindly provided by Curtis Harris (NCI, National Institutes of Health, Bethesda, Md.). THLE-5B cells were propagated in DMEM/F-12 (1:1; Invitrogen, Carlsbad, Calif.) with 10% fetal bovine serum (MediaTech CellGro, Herndon, Va.), that was supplemented with 100 units/ml penicillin, […] streptomycin (both from Invitrogen), 10 μg/ml insulin, 10 μg/ml transferrin and 10 ng/ml selenium (ITS; Lonza, Walkersville, Md.). Primary human hepatocytes were isolated as described before and cultured in HMM media (Lonza). Cells were maintained at 37° C. in a humidified incubator with 5% CO2 in air.
Chemicals. Stock solutions of AG1478 (Invitrogen), erlotinib (Tarceva™; Genentech, South San Francisco, Calif.) and gefitinib (Iressa™; AstraZeneca, Wilmington, Del.) were prepared in DMSO and stored at −20° C. EGF (Sigma, St. Louis, Mo.) stock solution was prepared in 10 mM acetic acid and diluted in PBS.
Anchorage-Independent Transformation Assay. Because cells suspended in soft agar cannot be easily recovered, the inventors used the previously described over-agar assay which allows for the analysis of molecular events associated with tumor promoter-induced cell transformation under anchorage-independent conditions. Briefly, 1×10^4 THLE-5B cells or isolated human hepatocytes were plated onto 0.5% BME agar containing the indicated concentrations of EGF and inhibitors. The plates were cultured for 14 days, after which colonies of transformed cells were counted using a microscope. The results represent one experiment and are presented as the mean±standard deviation of colony counts made by three separate investigators. The experiments were repeated twice to ensure qualitatively similar results.

THLE-5B cells [2] = test: Cell growth (MTT) assay in THLE-5B cells; type: cell-based, human; settings: inhibitor 0.01-1 μM; 72 h
Procedure: Cell Growth Assay. Briefly, THLE-5B cells were plated in triplicate at a density of 4×10^4 cells/ml in a 24-well plate. After 24 h, cells were washed once with PBS and medium containing inhibitors at the indicated concentrations or vehicle control was added. After 72 h, the effects of each inhibitor on growth of the cells was measured by colorimetric 3-(4,5-dimethylthiazol-2-yl)-2,5-diphenyltetrazolium bromide (MTT; Sigma) assay. The absorbance at 562 nm was measured using a spectrophotometric plate reader (Emax; Molecular Devices) and the experiment was repeated twice to ensure qualitatively similar results for each inhibitor.

HCC nodules = settings: rat, DEN-induced cirrhosis; treatment during weeks 12-18; cited from earlier work

| SMILES | EGF mediated anchorage-independent transformation of THLE-5B cells (THLE-5B cells [1]) | cytotoxicity to THLE-5B cells as determined by MTT (THLE-5B cells [2]) | EGF mediated anchorage-independent transformation of THLE-5B cells (THLE-5B cells [1]; listed as Gefitnib) | formation of HCC nodules (HCC nodules) |
| --- | --- | --- | --- | --- |
| COc1cc2ncnc(Nc3cccc(Cl)c3)c2cc1OC [AG1478, 4-(3-Chloroanillino)-6,7-dimethoxyquinazoline] | prevents EGF mediated anchorage-independent transformation; also recorded: inhibited | not cytotoxic | – | – |
| C#Cc1cccc(Nc2ncnc3cc(OCCOC)c(OCCOC)cc23)c1 [Erlotinib] | prevents EGF mediated anchorage-independent transformation; also recorded: inhibited | not cytotoxic | – | – |
| COc1cc2ncnc(Nc3ccc(F)c(Cl)c3)c2cc1OCCCN1CCOCC1 [Gefitinib] | inhibited | not cytotoxic | prevents EGF mediated anchorage-independent transformation | significantly reduced the formation of HCC nodules; also recorded: significantly reduced the formation of hepatocellular carcinoma nodules |
